Values joined by “and” are separate entries in the source; they are usually repeats but may differ in a detail not shown here. Equal values may be shown once.
System: 857933-349-R-J2-PDC complex spheroid viability
Assay: Anticancer human tumor 857933-349-R-J2-PDC patient-derived colon adenocarcinoma cell line growth inhibition [POLQ]
Conditions: for viability, T/C: stronger effect = lower value
Procedure: Multicellular complex tumor spheroid response to Polymerase (POL) inhibitors (novobiocin, ART-558, RP6685) in combination with a variety of drugs and investigational agents in selected tumor cell lines
The POL inhibitors (novobiocin, ART-558, and RP6685) were evaluated both individually and in combination with standard of care and investigational anticancer small molecules within a complex spheroid model of solid tumors. . Complex spheroids include a stromal component modeled by human endothelial cells (HUVEC) and fibroblasts modeled by human mesenchymal stem cells (MSCs). The concentration ranges selected for each drug and investigational agent were based upon clinically achievable concentrations if the clinical Cmax of the agent was known.
Compounds. The drugs and investigational agents: novobiocin (NSC847541), ART-558 (NSC835418), RP-6685 (NSC848927), peposertib (NSC802822), ceralasertib (NSC780249), elimusertib (NSC800525), camonsertib (NSC841442), AZD-1390 (NSC803789), olaparib (NSC753686), talazoparib (NSC767125), rucaparib (NSC756644), sotorasib (NSC818433), MRTX-1133 (NSC836407), SN-38 (NSC673596), topotecan (NSC609699), epotoside (NSC141540), doxorubicin (NSC123127), gemcitabine (NSC613327), 5-fluorouracil (NSC19893), paclitaxel (NSC125973), vemurafenib (NSC761431), MSA-2 (NSC828583), SN-011 (NSC837082), adavosertib (NSC754352), prexasertib (NSC758257), carboplatin (NSC241240) and oxaliplatin (NSC266046), were obtained from the National Cancer Institute (NCI) Developmental Therapeutics Program Chemical Repository (21). The FDA-approved anticancer drug set is available from the Developmental Therapeutics Program at https://dtp.cancer.gov/organization/dscb/obtaining/. […] The stock solutions were prepared in dimethyl sulfoxide (DMSO, Sigma-Aldrich, St. Louis, MO, cat. D2650), except for the platinum compounds which were prepared in saline (Quality Biological, Gaithersburg, MD, cat. 114-055-101), at 800-fold the tested concentration and stored at -70 degrees C prior to their use. All drugs and investigational agents were tested over a range starting from a high concentration at or near the clinical Cmax and decreasing in half-log increments. If the clinical Cmax for an agent had not been determined, the highest concentration tested was 10 microM, except for SN-38, which was tested at a high concentration of 1 microM.
Cell Culture. All cells were maintained in an incubator at 37 degrees C and 5% CO2 with 95% humidity. The PDC lines were cultured according to standard operating procedures established by the NCI PDMR (https://pdmr.cancer.gov). Table 3 of the manuscript, lists the cell lines along with the number of the three cell types plated to form the mct-spheroids and media for tumor cell growth. After thawing, all PDC lines, except 997537-175-T-J1-PDC and 415267-285-R-J2-PDC, were cultured in Matrigel-coated flasks prepared with a working solution of 1X Ham's F-12 nutrient mix, without supplementation (Thermo Fisher Scientific, cat. 11765054), 100 U/mL penicillin-streptomycin (Thermo Fisher Scientific, cat. 15140122), and 2.5% Matrigel (Corning Inc., Corning, NY, cat. 354248) for the first three passages. The two PDC lines 997537-175-T-J1-PDC and 415267-285-R-J2-PDC were cultured on uncoated flasks. The 857933-349-R-J2-PDC line was cultured in 6C/Colon 1B media containing advanced DMEM/F-12 (Thermo Fisher Scientific, cat. 12634028), 10 mM HEPES (Thermo Fisher Scientific, cat. 15630080), 1X GlutaMAX supplement (Thermo Fisher Scientific, cat. 35050061), 0.1 mg/mL primocin (InvivoGen, San Diego, CA, cat. ant-pm-2), 10% defined fetal bovine serum, heat inactivated (HyClone Laboratories Inc., Logan, UT, cat. SH30070.03HI), 50% L-WRN conditioned media (ATCC, cat. CRL-3276), 1.25 mM N-Acetyl-L-cysteine (Sigma-Aldrich, cat. A9165), 10 mM nicotinamide (Sigma-Aldrich, cat. N0636), 1X B-27 supplement (Thermo Fisher Scientific, cat. 17504044), 1X N-2 supplement (Thermo Fisher Scientific, cat. […]

[1] = curve of first compound, second compound 0.0316 µM
[2] = curve of first compound, second compound 0.1 µM
[3] = curve of first compound, second compound 0.316 µM
[4] = curve of first compound, second compound 1 µM
[5] = curve of first compound, second compound 3.16 µM
[6] = curve of first compound, second compound 10 µM
[7] = second compound 0.0316 µM, first compound 0.0316 µM
[8] = second compound 0.0316 µM, first compound 0.1 µM
[9] = second compound 0.0316 µM, first compound 0.316 µM
[10] = second compound 0.0316 µM, first compound 1 µM
[11] = second compound 0.0316 µM, first compound 3.16 µM
[12] = second compound 0.0316 µM, first compound 10 µM
[13] = second compound 0.1 µM, first compound 0.0316 µM
[14] = second compound 0.1 µM, first compound 0.1 µM
[15] = second compound 0.1 µM, first compound 0.316 µM
[16] = second compound 0.1 µM, first compound 1 µM
[17] = second compound 0.1 µM, first compound 3.16 µM
[18] = second compound 0.1 µM, first compound 10 µM
[19] = second compound 0.316 µM, first compound 0.0316 µM
[20] = second compound 0.316 µM, first compound 0.1 µM
[21] = second compound 0.316 µM, first compound 0.316 µM
[22] = second compound 0.316 µM, first compound 1 µM
[23] = second compound 0.316 µM, first compound 3.16 µM
[24] = second compound 0.316 µM, first compound 10 µM
[25] = second compound 1 µM, first compound 0.0316 µM
[26] = second compound 1 µM, first compound 0.1 µM
[27] = second compound 1 µM, first compound 0.316 µM
[28] = second compound 1 µM, first compound 1 µM
[29] = second compound 1 µM, first compound 3.16 µM
[30] = second compound 1 µM, first compound 10 µM
[31] = second compound 3.16 µM, first compound 0.0316 µM
[32] = second compound 3.16 µM, first compound 0.1 µM
[33] = second compound 3.16 µM, first compound 0.316 µM
[34] = second compound 3.16 µM, first compound 1 µM
[35] = second compound 3.16 µM, first compound 3.16 µM
[36] = second compound 3.16 µM, first compound 10 µM
[37] = second compound 10 µM, first compound 0.0316 µM
[38] = second compound 10 µM, first compound 0.1 µM
[39] = second compound 10 µM, first compound 0.316 µM
[40] = second compound 10 µM, first compound 1 µM
[41] = second compound 10 µM, first compound 3.16 µM
[42] = second compound 10 µM, first compound 10 µM
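Note: spheroids exposed to compounds for seven days before readout.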

COc1cc2cc(C(=O)CCC(=O)O)sc2cc1OC + Nc1ccc(C#CCN(C(=O)Cc2ncc(C(F)(F)F)cc2C(F)(F)F)c2ccc(F)cc2)nn1
IC50 [1]: > 10 µM
IC50 [2]: > 10 µM
IC50 [3]: > 10 µM
IC50 [4]: > 10 µM
IC50 [5]: > 10 µM
IC50 [6]: > 10 µM
viability, T/C [7]: 103%
viability, T/C [8]: 110%
viability, T/C [9]: 108%
viability, T/C [10]: 111%
viability, T/C [11]: 100%
viability, T/C [12]: 104%
viability, T/C [13]: 100%
viability, T/C [14]: 106%
viability, T/C [15]: 101%
viability, T/C [16]: 110%
viability, T/C [17]: 108%
viability, T/C [18]: 97.5%
viability, T/C [19]: 96.5%
viability, T/C [20]: 97.3%
viability, T/C [21]: 98.2%
viability, T/C [22]: 92.4%
viability, T/C [23]: 106%
viability, T/C [24]: 96%
viability, T/C [25]: 103%
viability, T/C [26]: 93.3%
viability, T/C [27]: 97.5%
viability, T/C [28]: 109%
viability, T/C [29]: 110%
viability, T/C [30]: 89.1%
viability, T/C [31]: 102%
viability, T/C [32]: 98.7%
viability, T/C [33]: 90.7%
viability, T/C [34]: 89.7%
viability, T/C [35]: 104%
viability, T/C [36]: 103%
viability, T/C [37]: 93.7%
viability, T/C [38]: 78.3%
viability, T/C [39]: 98.9%
viability, T/C [40]: 97.6%
viability, T/C [41]: 108%
viability, T/C [42]: 78.4%

O=c1[nH]cc(F)c(=O)[nH]1
viability, T/C (compound 0.0316 µM): 98.7% and 89.7% and 53.3%
viability, T/C (compound 0.1 µM): 89.1% and 112% and 86.9%
viability, T/C (compound 0.316 µM): 114% and 97.8% and 96%
viability, T/C (compound 1 µM): 72.6% and 81.3% and 59.4%
viability, T/C (compound 3.16 µM): 45.8% and 37.1% and 40.2%
viability, T/C (compound 10 µM): 28.3% and 24.9% and 21.5%
IC50 (curve of compound): 2.38 µM and 2.25 µM and 1.89 µM

CC1COCCN1c1cc(C2(S(C)(=N)=O)CC2)nc(-c2ccnc3[nH]ccc23)n1 (stereo unspecified) + COC1C(OC(N)=O)C(O)C(Oc2ccc3c(O)c(NC(=O)c4ccc(O)c(CC=C(C)C)c4)c(=O)oc3c2C)OC1(C)C
IC50 [1]: 4.83 µM
IC50 [2]: 4.54 µM
IC50 [3]: 4.01 µM
IC50 [4]: 4.46 µM
IC50 [5]: 4.77 µM
IC50 [6]: 4.93 µM
viability, T/C [7]: 105%
viability, T/C [8]: 107%
viability, T/C [9]: 80.2%
viability, T/C [10]: 77.6%
viability, T/C [11]: 70.1%
viability, T/C [12]: 27.7%
viability, T/C [13]: 85.6%
viability, T/C [14]: 84.5%
viability, T/C [15]: 73.7%
viability, T/C [16]: 73.3%
viability, T/C [17]: 57.2%
viability, T/C [18]: 34.2%
viability, T/C [19]: 84.9%
viability, T/C [20]: 86.1%
viability, T/C [21]: 74.7%
viability, T/C [22]: 77.8%
viability, T/C [23]: 53.6%
viability, T/C [24]: 33%
viability, T/C [25]: 101%
viability, T/C [26]: 98.7%
viability, T/C [27]: 79.1%
viability, T/C [28]: 72.1%
viability, T/C [29]: 55.2%
viability, T/C [30]: 37.9%
viability, T/C [31]: 94.6%
viability, T/C [32]: 89.5%
viability, T/C [33]: 97%
viability, T/C [34]: 86.4%
viability, T/C [35]: 57.2%
viability, T/C [36]: 37.2%
viability, T/C [37]: 118%
viability, T/C [38]: 79.4%
viability, T/C [39]: 85.7%
viability, T/C [40]: 77.2%
viability, T/C [41]: 55.7%
viability, T/C [42]: 38.6%
